Assay results from US4965280A, “Antifungal carbinols” (E. I. Du Pont de Nemours and Company, priority 1989, dated 1990).

How the values were obtained:
G4646 CORN = assay: Test D Corn and Sorghum Herbicide Test; format: in vivo, Zea mays
GIANT FOXTAIL = assay: Test D; format: in vivo, Setaria faberii
JIMSONWEED = assay: Test D; format: in vivo, Datura stramonium
IVY MORNINGLORY = assay: Test D; format: in vivo, Ipomoea hederacea
PURPLE NUTSEDGE = assay: Test D; format: in vivo, Cyperus rotundus
G522 SORGHUM = assay: Test D; format: in vivo, Sorghum bicolor
BARNYARDGRASS = assay: Test D; format: in vivo, Echinochloa crus-galli
Description: The Corn and Sorghum Herbicide Test included the following species in both the preemergence and postemergence evaluations:
Postemergence plantings were grown in Sassafras sandy loam soil. Corn and soybeans were grown in separate 25 cm diameter containers. Sorghum and the seven grass weed species were grown in two 18 cm diameter containers, 4 species per container. The seven broadleaf weed species were also grown in two 18 cm diameter containers, 4 species in one container, 3 species in the second container. One additional planting of corn in an 18 cm diameter container was made. The soil surface of this additional container of corn was covered with the absorbent, perlite, before spray treatment so that test chemicals would enter the plant only via the foliage. The plants were grown 10-21 days, dependent upon the species and then sprayed postemergence with the test chemicals dissolved in a nonpytotoxic solvent.
Preemergence plantings were grown in fertilized Tama silt loam soil. These plantings are identical to those described in the postemergence section, with the exception of the corn planting having perlite covering the soil surface. These plantings were made the day of or the day before spraying the test chemicals dissolved in a nonphytotoxic solvent.
Treated plants and controls were maintained in the greenhouse for 2 to 4 weeks. Visual planting response ratings were made on a percentage scale of 0 to 100 in comparison with a control where 0=no injury, and 100=death.

GREEN FOXTAIL = assay: Test D; format: in vivo, Setaria viridis
LARGE CRABGRASS = assay: Test D; format: in vivo, Digitaria sanguinalis
FALL PANICUM = assay: Test D; format: in vivo, Panicum dichotomiflorum

C=C(c1ccccc1)C(O)(Cn1cncn1)c1ccc(Cl)cc1Cl (stereo not drawn) [Example 50, 2-(2,4-Dichlorophenyl)-3-phenyl-1-(1H-1,2,4-triazol-1-yl)-3-buten-2-ol]
plant response (G4646 CORN; POSTEMERGENCE 0250 GM/HA): 0%
plant response (G4646 CORN; POSTEMERGENCE 0500 GM/HA): 20%
plant response (G4646 CORN; PREEMERGENCE 0064 GM/HA): 0%
plant response (G4646 CORN; PREEMERGENCE 0125 GM/HA): 0%
plant response (G4646 CORN; PREEMERGENCE 0250 GM/HA): 0%
plant response (G4646 CORN; PREEMERGENCE 0500 GM/HA): 0%
plant response (GIANT FOXTAIL; POSTEMERGENCE 0250 GM/HA): 0%
plant response (GIANT FOXTAIL; POSTEMERGENCE 0500 GM/HA): 0%
plant response (GIANT FOXTAIL; PREEMERGENCE 0064 GM/HA): 20%
plant response (GIANT FOXTAIL; PREEMERGENCE 0125 GM/HA): 65%
plant response (GIANT FOXTAIL; PREEMERGENCE 0250 GM/HA): 75%
plant response (GIANT FOXTAIL; PREEMERGENCE 0500 GM/HA): 85%
plant response (JIMSONWEED; POSTEMERGENCE 0250 GM/HA): 20%
plant response (JIMSONWEED; POSTEMERGENCE 0500 GM/HA): 45%
plant response (JIMSONWEED; PREEMERGENCE 0064 GM/HA): 0%
plant response (JIMSONWEED; PREEMERGENCE 0125 GM/HA): 25%
plant response (JIMSONWEED; PREEMERGENCE 0250 GM/HA): 50%
plant response (JIMSONWEED; PREEMERGENCE 0500 GM/HA): 70%
plant response (IVY MORNINGLORY; POSTEMERGENCE 0250 GM/HA): 20%
plant response (IVY MORNINGLORY; POSTEMERGENCE 0500 GM/HA): 60%
plant response (IVY MORNINGLORY; PREEMERGENCE 0064 GM/HA): 0%
plant response (IVY MORNINGLORY; PREEMERGENCE 0125 GM/HA): 30%
plant response (IVY MORNINGLORY; PREEMERGENCE 0250 GM/HA): 40%
plant response (IVY MORNINGLORY; PREEMERGENCE 0500 GM/HA): 65%
plant response (PURPLE NUTSEDGE; POSTEMERGENCE 0250 GM/HA): 0%
plant response (PURPLE NUTSEDGE; POSTEMERGENCE 0500 GM/HA): 0%
plant response (PURPLE NUTSEDGE; PREEMERGENCE 0064 GM/HA): 0%
plant response (PURPLE NUTSEDGE; PREEMERGENCE 0125 GM/HA): 0%
plant response (PURPLE NUTSEDGE; PREEMERGENCE 0250 GM/HA): 0%
plant response (PURPLE NUTSEDGE; PREEMERGENCE 0500 GM/HA): 30%
plant response (G522 SORGHUM; POSTEMERGENCE 0250 GM/HA): 0%
plant response (G522 SORGHUM; POSTEMERGENCE 0500 GM/HA): 0%
plant response (G522 SORGHUM; PREEMERGENCE 0064 GM/HA): 0%
plant response (G522 SORGHUM; PREEMERGENCE 0125 GM/HA): 0%
plant response (G522 SORGHUM; PREEMERGENCE 0250 GM/HA): 0%
plant response (G522 SORGHUM; PREEMERGENCE 0500 GM/HA): 0%
plant response (BARNYARDGRASS; POSTEMERGENCE 0250 GM/HA): 0%
plant response (BARNYARDGRASS; POSTEMERGENCE 0500 GM/HA): 0%
plant response (BARNYARDGRASS; PREEMERGENCE 0064 GM/HA): 0%
plant response (BARNYARDGRASS; PREEMERGENCE 0125 GM/HA): 0%
plant response (BARNYARDGRASS; PREEMERGENCE 0250 GM/HA): 20%
plant response (BARNYARDGRASS; PREEMERGENCE 0500 GM/HA): 45%
plant response (GREEN FOXTAIL; POSTEMERGENCE 0250 GM/HA): 0%
plant response (GREEN FOXTAIL; POSTEMERGENCE 0500 GM/HA): 0%
plant response (GREEN FOXTAIL; PREEMERGENCE 0064 GM/HA): 0%
plant response (GREEN FOXTAIL; PREEMERGENCE 0125 GM/HA): 30%
plant response (GREEN FOXTAIL; PREEMERGENCE 0250 GM/HA): 50%
plant response (GREEN FOXTAIL; PREEMERGENCE 0500 GM/HA): 85%
plant response (LARGE CRABGRASS; POSTEMERGENCE 0250 GM/HA): 70%
plant response (LARGE CRABGRASS; POSTEMERGENCE 0500 GM/HA): 100%
plant response (LARGE CRABGRASS; PREEMERGENCE 0064 GM/HA): 40%
plant response (LARGE CRABGRASS; PREEMERGENCE 0125 GM/HA): 75%
plant response (LARGE CRABGRASS; PREEMERGENCE 0250 GM/HA): 100%
plant response (LARGE CRABGRASS; PREEMERGENCE 0500 GM/HA): 100%
plant response (FALL PANICUM; POSTEMERGENCE 0250 GM/HA): 20%
plant response (FALL PANICUM; POSTEMERGENCE 0500 GM/HA): 35%
plant response (FALL PANICUM; PREEMERGENCE 0064 GM/HA): 20%
plant response (FALL PANICUM; PREEMERGENCE 0125 GM/HA): 35%
plant response (FALL PANICUM; PREEMERGENCE 0250 GM/HA): 60%
plant response (FALL PANICUM; PREEMERGENCE 0500 GM/HA): 95%
